One compound from patent US20190358247A1 (The Medical College of Wisconsin, Inc., priority 2016, published 2019) can be followed below.

Several values for one entry are separate records, joined by “and”; a condition that tells them apart may be missing. Equal entries are not always repeated.

Data set [1] relates to MiaPaCa-2 cells. The experiment in a line: Radiosensitization, clonogenic survival after X-radiation. Type of data set: cell-based, human. On the procedure: MiaPaCa2 cells (1000 cells/well) were cultured in quadruplicate overnight in 96-well plates and changed to fresh medium.
(§1) Radiation experiments. […] The cells were then treated with X-radiation at a dose of 0, 2, 4, and 6 Gy. The control cells were treated with the same concentration of vehicle (0.1% DMSO) where appropriate. After irradiation, cells were suspended and seeded at various densities (100-8,000 cells per well) in 6-well plates for clonogenic assay as described above. The plates were kept within the incubator and media changed every 3-4 days for 2 weeks. Wells with 10-50 sufficiently large clones were chosen for calculating the cell survival fractions.
(§2) Effect of Mito-Met and Met on PDAC radiosensitivity. Both control cells and cells were pretreated for 24 h with 1 mM Met or Mito-Met (1 μM) prior to X-radiation. Cell survival was measured by a clonogenic assay.

Data set [2] has as its system MiaPaCa-2 cells. Briefly: IncuCyte label-free cell confluence proliferation assay. The class given is cell-based, human. Particulars: PDAC / MiaPaCa-2, from two independent cell growth assays. On the procedure:
Cell proliferation was measured using a label-free, non-invasive cellular confluence assay employing the IncuCyte™ Live-Cell Imaging Analyzer (Essen Bioscience). This system provides real-time cellular confluence data based on segmentation of high definition phase contrast images. […] MiaPaCa2 cells were treated with Met (1 and 2 mM) or Mito-Met-C10 (1-2 μM).
(§3) IncuCyte Analyzer-real time measurement of cell proliferation. The cell proliferation was measured using a label-free, noninvasive cellular confluence assay by IncuCyte Live-Cell Imaging Systems (Essen Bioscience, Ann Arbor, Mich., USA; IncuCyte FLR). This system enables collection of live cell images at 2 h intervals over several days. The IncuCyte Analyzer provides real-time cellular confluence data based on segmentation of high-definition phase-contrast images. The cell proliferation is expressed as an increase in percentage of cell confluence.

Another data set concerns MCF-10A cells. The experiment in a line: Radiosensitization, clonogenic survival after X-radiation, normal cells. Type of data set: cell-based. Conditions: 1 μM, 24 h pretreatment. Here is the method: as §1, §2
The next data set has as its system HaCaT. Briefly: IncuCyte cell confluence assay, keratinocytes. The class given is cell-based. On the procedure:
as §3

Data set [3] relates to MiaPaCa-2 cells. Briefly: Sytox Green cytotoxicity assay. The class given is cell-based. Conditions: 100 μM, 24 h. Here is the method: Cytotoxicity assay. To determine the cytotoxicity of Mito-Met analogs and other TPP^+-conjugated to a long chain aliphatic hydrocarbon, we used the Sytox assay as described previously. MiaPaCa-2 cells were treated for 24 h, and dead cells were monitored in the presence of 200 nM Sytox Green (Invitrogen). The Sytox method labels the nuclei of dead cells yielding green fluorescence. Fluorescence intensities from the dead cells in 96-well plate were acquired in real time every 15 min after 4 h using a plate reader (BMG Labtech, Inc.) equipped with an atmosphere controller set at 37° C. and 5% CO2:95% air, using a fluorescence detection with 485 nm (excitation) and 535 nm (emission). To measure the total cell number, all of the samples in each treatment group were permeabilized by adding Triton X 100 (0.065%) in the presence of Sytox Green for 3 h, and maximal fluorescence intensities were taken as 100%. Data are represented as a percentage of dead cells after normalization to total cell number for each group.
Induction of cell death was monitored by Sytox Green staining, as shown previously. MiaPaCa-2 cells were treated with Mito-Met10 (100 μM), Mito-CP (100 μM), or Met (30 mM) and other controls for 24 h and cell death was measured in real time.

A further data set deals with mitochondrial complex I (Homo sapiens, UniProt O75251+O75306+P03886). The experiment in a line: Complex I oxygen consumption (pyruvate/malate) in permeabilized cells, Seahorse XF96. Further details: IC50, complex I oxygen consumption; other: permeabilized MiaPaCa-2, added acutely. The class given is cell-based. On the procedure:
Respiratory enzyme activity in intact and permeabilized cells. The mitochondrial function in intact and permeabilized pancreatic cancer cells was measured using a Seahorse XF96 Extracellular Flux Analyzer (Seahorse Bioscience, North Billerica, Mass., USA). Unless specified otherwise, assays in intact cells were performed as previously described. Measurement of mitochondrial respiratory complexes in permeabilized cells was performed according to the manufacturer's instructions (Seahorse Bioscience). Briefly, intact cells were permeabilized using 1 nM Plasma Membrane Permeabilizer (PMP, Seahorse Bioscience) immediately before oxygen consumption rate (OCR) measurement by XF96. The oxygen consumption derived from mitochondrial complex I or complex II activity was measured by providing different substrates to mitochondria, e.g., pyruvate/malate for complex I and succinate for complex II activity. Rotenone, malonate and antimycin A were used as specific inhibitors of mitochondrial complex I, II and III activities, respectively.
The oxygen consumption rate was measured using the permeabilized MiaPaCa-2 cells in MAS buffer supplemented with pyruvate. The use of permeabilized cells avoids differences in cellular uptake of compounds. […] We tested the effect of pretreating cells with Mito-Met10 or Met using the permeabilized model. MiaPaCa-2 cells were treated with Met and Mito-Met10 for 24 h and the oxygen consumption studies were performed in these cells after permeabilization.

For a further data set, the system named is AMPK. The experiment in a line: Immunoblot of phosphorylated AMPK Thr-172 relative to total AMPK, FC1199 cells. Type of data set: cell-based. Conditions: murine FC1199, 1 μM, 30 min. Here is the method: In this example, the inventors have shown that the mito-met compounds of the present invention cause an increased AMPK activation in cancer cells. In preliminary experiments (FIG. 4), human MiaPaCa2 and murine FC1199 PDAC cells treated 30 min with 1 μM mito-met (MM), 1 mM Met, or the oligomycin positive control were lysed, and proteins size-separated on SDS-PAGE, transferred to PVDF, and probed with an antibody to phosphorylated AMPK Thr-172.
Immunoblotting. MiaPaCa-2 PDAC cells (1×10^6) were plated to 80% confluency in 60 mm dishes and then serum-starved for 5 hours. […] Cells were stimulated with oligomycin as a positive control. After stimulation, cells were washed twice in cold PBS and lysed using a modified RIPA buffer. Lysates were normalized for protein concentration, size separated using reducing SDS-PAGE, electro-transferred to PVDF membranes (Millipore) and then probed using primary and horseradish peroxidase-conjugated secondary antibodies. Antibodies against total or phosphorylated 5′ AMP-activated protein kinase (AMPK) were purchased from Cell Signaling Technology (Danvers, Mass.) and used at the manufacturer's recommended dilutions. Proteins were visualized by chemiluminescence with auto-exposure and quantified by densitometric analysis using the FluorChem HD2 from Cell Biosciences (Santa Clara, Calif.).
AMPK activation in Mito-Met and Met-treated PDAC cells. […]

Sequence of mitochondrial complex I (P03886 whole entry): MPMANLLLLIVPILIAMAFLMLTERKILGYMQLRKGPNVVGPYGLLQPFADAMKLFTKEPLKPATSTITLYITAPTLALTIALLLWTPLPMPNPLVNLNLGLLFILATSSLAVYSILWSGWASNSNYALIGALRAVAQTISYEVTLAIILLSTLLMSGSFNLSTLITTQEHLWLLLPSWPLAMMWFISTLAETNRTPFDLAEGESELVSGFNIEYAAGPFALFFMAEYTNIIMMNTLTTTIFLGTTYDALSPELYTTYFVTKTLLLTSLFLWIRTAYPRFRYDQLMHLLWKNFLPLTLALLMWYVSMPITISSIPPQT
Sequence of mitochondrial complex I (O75251 39-213): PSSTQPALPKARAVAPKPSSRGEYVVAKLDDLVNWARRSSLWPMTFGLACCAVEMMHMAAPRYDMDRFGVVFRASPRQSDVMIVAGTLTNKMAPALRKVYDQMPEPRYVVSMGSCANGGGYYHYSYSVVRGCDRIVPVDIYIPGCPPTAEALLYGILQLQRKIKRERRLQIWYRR
Sequence of mitochondrial complex I (P03897 whole entry, further chain): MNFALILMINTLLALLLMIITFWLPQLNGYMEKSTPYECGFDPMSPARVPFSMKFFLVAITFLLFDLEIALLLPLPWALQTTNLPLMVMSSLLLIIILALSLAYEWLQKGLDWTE
Sequence of mitochondrial complex I (O75306 34-463): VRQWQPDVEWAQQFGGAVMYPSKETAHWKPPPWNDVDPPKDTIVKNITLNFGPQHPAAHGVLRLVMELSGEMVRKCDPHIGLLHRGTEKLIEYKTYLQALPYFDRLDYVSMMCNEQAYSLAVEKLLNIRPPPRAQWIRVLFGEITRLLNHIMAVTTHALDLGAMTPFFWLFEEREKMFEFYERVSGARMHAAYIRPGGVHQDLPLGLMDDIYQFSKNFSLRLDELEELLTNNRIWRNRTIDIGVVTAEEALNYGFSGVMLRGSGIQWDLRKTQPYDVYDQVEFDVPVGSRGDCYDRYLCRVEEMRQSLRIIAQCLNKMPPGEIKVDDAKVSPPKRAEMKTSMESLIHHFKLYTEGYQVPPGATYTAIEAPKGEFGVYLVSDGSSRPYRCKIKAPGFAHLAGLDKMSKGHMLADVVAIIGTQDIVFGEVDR
Sequence of mitochondrial complex I (O75489 37-264, further chain): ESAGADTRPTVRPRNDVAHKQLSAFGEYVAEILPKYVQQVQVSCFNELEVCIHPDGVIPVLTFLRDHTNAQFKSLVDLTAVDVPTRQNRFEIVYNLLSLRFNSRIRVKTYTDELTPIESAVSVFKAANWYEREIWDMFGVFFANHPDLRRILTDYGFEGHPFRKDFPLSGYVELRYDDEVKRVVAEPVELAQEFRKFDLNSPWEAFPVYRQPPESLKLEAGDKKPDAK

Usually IC50 stands for the concentration needed to halve the response being measured. On to `Br.N=C(N)NC(=N)NCCCCCCCCCC[P+](c1ccccc1)(c1ccccc1)c1ccccc1` [Mito-Met10], for which the “radiosensitizing concentration, fold lower than Met” value with MiaPaCa-2 cells [1] (1 μM versus Met 1 mM) was 1,000 fold. For the same compound, the radiosensitization entry in the data set with MiaPaCa-2 cells [1] (24 h pretreatment (1 mM Met, 1 μM Mito-Met) before X-radiation) was “as effective as 1 mM Met”. Besides, the “fold more effective than metformin in inhibiting cell proliferation” value in the data set with MiaPaCa-2 cells [2] is ~1,000 fold and > 1,000 fold; in the data set on MiaPaCa-2 cells [2] (listed as mito-met-C10) it was ~1,000 fold. Moreover, the “radiosensitivity in normal cells” value in the data set with MCF-10A cells was “no radiosensitivity was observed”. Also, in the data set with HaCaT, the “effect on cell confluence” value is “not significantly affected”. Besides, the “cell death, Sytox Green staining” value in the data set with MiaPaCa-2 cells [3] is on record as “no detectable cell death”. Further, the “concentration at which OCR was inhibited” value on mitochondrial complex I (permeabilized MiaPaCa-2, added acutely) was determined as 10 µM. Further, the IC50 on mitochondrial complex I (read-out: IC50, complex I oxygen consumption, permeabilized MiaPaCa-2, compound added acutely (FIG. 20C)) amounted to 2000 nM. The “increase in active AMPK (phosphorylated relative to total protein)” value in the data set with AMPK was 1.5-2.5 fold.
